Source: ChEMBL document CHEMBL3867428, “Eremophilane Sesquiterpenes from an Endophytic Fungus Periconia Species” (J Nat Prod, 2016)
pIC50: −log10 of the molar value.

Tests used:
[1] = Cytotoxicity against human HeLa cells assessed as reduction in cell viability after 96 hrs by MTT assay; assay type: functional, cell-based
[2] = system: Human immunodeficiency virus 1; test: Antiviral activity against VSV-G pseudotyped HIV1 infected in human SupT1 cells after 48 hrs by luciferase reporter gene assay; assay type: functional, cell-based; details: Human immunodeficiency virus 1, SUP-T1, 48 h
[3] = Cytotoxicity against human MCF7 cells assessed as reduction in cell viability after 96 hrs by MTT assay; assay type: functional, cell-based; details: MCF7, 96 h
[4] = Antiinflammatory activity in […] cells assessed as inhibition of LPS-induced NO production at 1 uM preincubated with compound followed by LPS stimulation after 24 hrs; assay type: functional; details: Mus musculus, BV-2

C[C@H]1C(=O)C=CC2=C[C@@H](O)[C@H](O)C[C@@]21C
pIC50 [1]: 4.78 | pIC50 [2]: 4.96

CC(=O)O[C@H]1C(=O)[C@@]2(C)[C@H]([C@H](OC(=O)c3ccccc3)[C@]3(O)C[C@H](OC(=O)[C@H](O)[C@@H](NC(=O)c4ccccc4)c4ccccc4)C(C)=C1C3(C)C)[C@]1(OC(C)=O)CO[C@@H]1C[C@@H]2O [PACLITAXEL]
pIC50 [3]: 9.70 | pIC50 [1]: 8.19

C=C(C)[C@@]1(O)C[C@@]2(C)C(=C[C@@H]1O)C=CC(=O)[C@H]2C
pIC50 [3]: 4.75

C[C@@H]1C(=O)C=CC2=C[C@@H](O)[C@H](O)C[C@@]21C
inhibition at 1 µM [4]: 16.1%

COc1cc(/C=C/C(=O)CC(=O)/C=C/c2ccc(O)c(OC)c2)ccc1O [CURCUMIN]
inhibition at 1 µM [4]: 12.9%

C=C(C)[C@@H]1C[C@@]2(C)C(=C[C@@H](O)[C@H](O)[C@@H]2C)[C@@H](O)[C@H]1O
inhibition at 1 µM [4]: 18.3%

C=C(C)[C@]1(O)C[C@@]2(C)C(=C[C@H]1O)C=CC(=O)[C@@H]2C
inhibition at 1 µM [4]: 10.2%
